Patent publication US20170327556A1, “CARTILAGE-BINDING FUSION PROTEINS” (Merrimack Pharmaceuticals, Inc., priority 2013, published 2017)

Tests used:
[1] = system: AKT phosphorylation in bovine chondrocytes; assay: Stimulation of AKT phosphorylation in primary bovine chondrocytes (pAKT ELISA); assay type: cell-based; conditions: 10 min stimulation, doses in M (Table 4), 6x-Histidine-tagged fusion proteins
Method: (§1) Fusion proteins comprising IGF-1 and a cartilage matrix binding domain were prepared as described above. Six fusion proteins were prepared: GF-Fus1 (6x-Histidine-tagged), GF-Fus2(6x-Histidine-tagged), GF-Fus3 (6x-Histidine-tagged), GF-Fus4 (6x-Histidine-tagged), GF-Fus5 (6x-Histidine-tagged), and GF-Fus6 (6x-Histidine-tagged). In order to ensure that the growth factor portion of the fusion protein was active in the fusion proteins, each construct was tested for its ability to stimulate AKT phosphorylation. Wild-type IGF-1 (wtIGF) was included as a control. Bovine chondrocytes were stimulated with a range of doses of each fusion protein, and pAKT levels were measured by ELISA.
Bovine chondrocytes are isolated from the femoral chondyles of 2-4 week old bovine calves. Knee joints are mounted by removing all tissue surrounding the femur, removing the femoral head with a bone saw or hack saw, and clamping in a tissue vice. Joints are aseptically opened, removing the patella, tibia and fibula. Using a scalpel, cartilage is sliced off the femoral chondyles and placed in sterile PBS (pH=7.4) containing penicillin-streptomycin (1×, Gibco 15140-122). PBS is subsequently removed and pronase solution (50 mL per 5 g of tissue), consisting of high glucose DMEM (Life Technologies Cat#11965-092), fetal bovine serum (10% v/v, Life Technologies Cat#16140071), HEPES (100 mM, Gibco 15630-080), non-essential amino acids (1×, Sigma M7145), penicillin-streptomycin (1×, Gibco 15140-122), proline (400 μM, Sigma P5607-256), Protease Type XIV (2 mg/mL, Sigma Cat# P5147), is added for 1 hour with stirring. After rinsing twice with sterile PBS (pH=7.4), collagenase solution (50 mL per 5 g of tissue), consisting of high glucose DMEM (Life Technologies Cat#11965-092), fetal bovine serum (10% v/v, Life Technologies Cat#16140071), HEPES (100 mM, Gibco 15630-080), NEAA(1×, Sigma M7145), Penicillin-Streptomycin (1×, Gibco 15140-122), 0.25 mg/mL Collagenase P (Roche Cat#11 249 002 001), is added for 18 hours with stirring. Cell are strained, washed, and resuspended in chondrocyte culture medium (low glucose DMEM (1× Gibco 11885-084), Penicillin-Streptomycin (1×, Gibco 15140-122), non-essential amino acids (1×, Sigma M7145), and HEPES (100 mM, Gibco 15630-080)) with fetal bovine serum (10% v/v, Life Technologies Cat#16140071).
For ligand stimulation, chondrocytes were seeded at 200,000 cells/well into 96-well tissue culture plates with 100 μL of chondrocyte culture medium with fetal bovine serum (10% v/v, Life Technologies Cat#16140071). […]

[2] = system: bovine cartilage explants; assay: In vitro joint disease model (IL-1), explanted bovine cartilage: sGAG loss; assay type: cell-based; conditions: 13.3 nM supplied in every medium change, IL-1, relative to Disease control
Excerpt: (§2) Bovine cartilage explants (3 mm diameter, 1.2 mm thick) are harvested from the femoral patellar groove of 2-4 week old bovine calves. Knee joints are mounted by removing all tissue surrounding the femur, removing the femoral head with a bone saw or hack saw, and clamping in a tissue vice. Joints are aseptically opened, removing the patella, tibia and fibula. Using a 3 mm diameter disposable biopsy punch, approximately 80×3 mm diameter full thickness cartilage cores are punched from the femoral-patellar groove. A sterile knife is used to slice the cores at the cartilage-bone interface. Cores are then inserted into 3 mm diameter holes in a 1.2 mm thick sterile stainless steel plate and sliced flush with the plate using sterile razor blades to remove the excess core length, resulting in 3 mm diameter, 1.2 mm thick cartilage explants with the superficial zone cartilage intact.
(§3) Explants are cultured in 96-well plates in 300 μL of medium consisting of low glucose DMEM (1× Gibco 11885-084), Penicillin-Streptomycin (1×, Gibco 15140-122), ascorbic acid (20 μg/mL, Sigma A4403), proline (400 μM, Sigma P5607-256), non-essential amino acids (1×, Sigma M7145), and HEPES (100 mM, Gibco 15630-080). Explants from three animals (n=2-3 per animal) are used in each treatment condition for a total explant number of 8-9 per condition. Medium is changed every 2 days. On days 6 and 10, the medium is supplemented with 5 μCi/mL of ^35S-sodium sulfate (Perkin Elmer NEX041H001MC, 1 mCi).
(§4) Timepoints are taken at day 8 and 12: explant tissue is washed four times for 30 min each (2 hr total) in 1 mM unlabeled sodium sulfate in PBS. Each explant is weighed wet and frozen at −20° C. until digestion. Tissue digestion was performed with Proteinase K (Roche cat #3115879001) and each explant is digested in 1 mL 100 μg/mL Proteinase K in 50 mM Tris-HCL, 1 mM Calcium Chloride pH=8.0 buffer at 60° C. overnight. Measurement of sGAG content and DNA content is performed using standard assay methods such as those described in Hoemann, 2004, Methods in Molecular Medicine: Cartilage and Osteoarthritis. Totowa, N.J.: Humana Press Inc.; p. 127-52. ^35S-sulfate content of the digested cartilage explants was quantified by mixing 20 μL of digest with 250 μL of scintillation fluid (Perkin Elmer cat #1200-439) and counting with a WALLAC 1450 MICROBETA TRILUX scintillation counter.
(§5) Treatments were given at the following concentrations: wtIGF-1 13.3 nM=100 ng/mL (IGF-1 R&D systems 291-G1); GF-Fus1 (6x-Histidine tagged) 13.3 nM=135 ng/mL; GF-Fus2 (6x-Histidine tagged) 13.3 nM=140 ng/mL; and GF-Fus3 (6x-Histidine tagged)13.3 nM=181 ng/mL. All treatments included IL-1 and were given for either 4 days or the entire culture duration. The outcomes measured were ^35S-sulfate incorporation, DNA content, and sGAG content of plug at endpoint, and sGAG released to media for all media changes. Controls were either no treatment (Healthy) or IL-1 alone at 1 ng/mL (Disease).
(§6) FIG. 4 depicts a graph of cartilage matrix loss as measured by the cumulative percentage of total sGAG lost to the culture medium against time (days). Percentage loss is calculated by dividing the cumulative sGAG in the culture medium by the total sGAG present in the medium over the culture period plus the sGAG remaining in the explant at the end of culture. Cartilage matrix loss was reduced by each IGF fusion protein relative to the disease control at a level similar to wild-type IGF. New cartilage matrix synthesis (i.e. sulfated proteoglycan synthesis is measured by ^35S-Sulfate incorporation) during the final 48 hrs of cultures terminated at day 8 and day 12 is shown in FIGS. 5A and 5B, respectively. Cartilage matrix synthesis was increased compared to disease control by all fusion proteins (GF-Fus1, GF-Fus2, and GF-Fus3) and wild-type IGF when the fusion proteins were supplied in every medium change for the entire culture duration of 8 and 12 days (black bars). […]

[3] = system: bovine cartilage explants; assay: In vitro joint disease model (IL-1), explanted bovine cartilage: ^35S-sulfate incorporation; assay type: cell-based; conditions: supplied in every medium change for 8 or 12 days, IL-1, final 48 hrs, versus Disease control
Excerpt: as §2, §3, §4, §5, §6

[4] = ELISA binding of fusion proteins to heparan sulfate coated plates; conditions: 6x-Histidine-tagged proteins, FIG. 1A
Method: (§7) The specificity of binding of fusion proteins to the polysaccharides heparan sulfate and chondroitin sulfate may be determined by measuring the ability of the proteins to bind polysaccharides coated on an ELISA plate. Heparin Binding Plates (BD Biosciences) are coated with 50 μl of 2-10 μg/mL concentration of heparan sulfate or chondroitin sulfate (Sigma-Aldrich®) and incubated overnight at room temperature. Plates are washed with PBS and blocked with 250 μl of 0.2% gelatin in PBS for 1 hour at 37 C. Plates are then washed with PBS and tapped dry. 50 μl of protein in a dilution series is added to the wells and incubated for 2 hours at 37 C. The protein dilution series starts from 100 nM and includes ten additional three-fold dilutions in PBS, 0.2% gelatin and one blank (PBS, 0.2% gelatin only). After the plates are washed in PBS, 50 μl of anti-human IGF-1 (Abcam) at 1:250 in PBST is added and the plates are incubated for 1 hour rotating at room temperature. Plates are washed with PBST and 100 μl of 1:1000 anti-Rabbit-HRP (Cell Signaling Technology®) in PBST is added to each well and the plate is incubated for 1 hour at room temperature. […] The absorbance is measured at 450 nm and the resulting data is analyzed using GraphPad Prism® (GraphPad Software, San Diego, Calif.). […]

[5] = ELISA binding of fusion proteins to chondroitin sulfate coated plates; conditions: 6x-Histidine-tagged proteins, FIG. 1B
Method: as §7

BXPC-3 cells = assay: Stimulation of AKT phosphorylation in BXPC-3 cells (pAKT ELISA); assay type: cell-based; conditions: 10 min stimulation, doses in M (Table 4), 6x-Histidine-tagged fusion proteins
Method: as §1
For ligand stimulation, chondrocytes were seeded at 200,000 cells/well into 96-well tissue culture plates with 100 μL of chondrocyte culture medium with fetal bovine serum (10% v/v, Life Technologies Cat#16140071). Alternatively, BXPC-3 cells, a pancreatic adenocarcinoma cell line (ATCC® CRL-1687™), were seeded at 30,000 cells/well into 96-well tissue culture plates with 100 μL of BXPC-3 medium (RPMI-1640, e.g., ATCC® 30-2001™), with L-glutamine (2 mM), Penicillin-Streptomycin (1×, Gibco® 15140-122), Fetal Bovine Serum (10% v/v, Life Technologies Cat#16140071)). After 24 hrs, both chondrocytes and BXPC-3 cells were rinsed with 100 μL of sterile PBS (pH=7.4) per well and 100 μl of chondrocyte or BXPC-3 culture medium (without fetal bovine serum) was added to the corresponding cell type. After an additional 24 hrs, cells were stimulated with the doses of fusion proteins set forth in Table 4 by adding 25 μL of fusion protein at a concentration 5 times greater than the concentration listed in Table 4 to the 100 μL of medium already in the wells. After 10 min of stimulation, fusion protein was removed and wells were rinsed in ice cold PBS (pH=7.4). 50 μL/well of cell extraction buffer (Invitrogen cat# FNN0011) was added and incubated with shaking at 4° C. for 30 minutes. Lysates were then frozen at −80° C.
Corning high binding 384 well black ELISA plates (cat#3577) are coated with 30 μL of capture antibody at 4 μg/mL (anti-AKT1 total capture antibody, Upstate, Cat#05-591MG) in PBS (pH=7.4) for 16 hours at room temperature, washed and blocked with […] 2% bovine serum albumin (Sigma Cat# A3294) in PBS (pH=7.4) for 1 hour at room temperature. 20 μL of thawed lysates or recombinant pAKT standards (ten 2-fold serial dilutions of 400 ng recombinant human AKT, active (Upstate, Cat#14-276) in PBS (pH=7.4) containing 50% v/v Cell extraction buffer (Invitrogen Cat#FNN0011), 1% bovine serum albumin (Sigma Cat# A3294), 0.05% Tween20) are applied to the coated plate and incubated for 2 hours at room temperature. After washing 3 times with 100 μL/well of 0.05% Tween-20/PBS (pH=7.4) bound phospho-AKT is detected using Phospho-AKT (Ser473)(587F11)-biotinylated (Cell Signaling, Cat#5102), streptavidin-HRP (R&D Systems Cat# DY998, Part #890803), SuperSignal ELISA PicoChemiluminescent Substrate (Thermo Scientific Cat#37069), using a luminometer to detect light emissions at 425 nm.

Substance	logEC50 Mean [1]	cartilage matrix loss (% sGAG loss) [2]	cartilage matrix synthesis (^35S-sulfate incorporation) [3]	binding to heparan sulfate [4]	binding to chondroitin sulfate [5]	logEC50 Mean (BXPC-3 cells)
GF-Fus2: N-terminal Prelp HB domain fused to wild-type IGF	−8.830	reduced	increased			
GF-Fus4: IGF-1(LR3) fused to Collagen IX HB domain				did not bind	did not bind	−9.133
